# Key:
# NOX4 [1] = experiment: NOX4 protein expression in human immortal podocytes under high glucose (Western blot); type: cell-based; conditions: ATG 10 μmol/L
# From the text: The detection method of Western Blot and mRNA used in the present embodiment is a detection method commonly used by person skilled in the art, and the specific detection method is described in “Molecular Biology Laboratory Manual” (People's Military Medical Press, published in 2011 Jun. 1). 3.1 Western blot and Realtime PCR confirmed that ATG in human immortal podocytes can inhibit the overexpression of NOX4 caused by high glucose stimuli, see table 5 and FIG. 6. The expression of NOX4 in the total protein, membrane protein and mitochondrial protein of human immortal podocytes was detected in the experiment. […] The meanings of the symbols in FIG. 6 are as follows: HG: high glucose (glucose […]); T: total protein; Tmeb cell membrane protein; Mito: mitochondrial protein.
# NOX4 [2] = experiment: NOX4 protein expression in mouse primary endothelial cells under high glucose (Western blot); type: cell-based
# From the text: The detection method of Western Blot and mRNA used in the present embodiment is a detection method commonly used by person skilled in the art, and the specific detection method is described in “Molecular Biology Laboratory Manual” (People's Military Medical Press, published in 2011 Jun. 1). 3.2 Western blot and Realtime PCR confirmed that ATG could inhibit the overexpression of NOX4 in mouse's primary endothelial cells. The dose of 1 and 10 μmol/L corresponds to the last two bands.
# NOX = experiment: NOX-related ROS induced by high glucose (NADPH oxidative activity, luminescence); type: cell-based, human
# Method: The human immortal podocytes were divided into 6 groups: blank group, high glucose group (30 mM), high glucose+10 μMATG, high glucose+20 μMATG, high glucose+50 μMATG, high glucose+100 μMATG.
# The effects of ATG on NOX producing ROS were observed by measuring the oxidative activity of NADPH (reduced coenzyme II): The […] were washed twice with HBSS (Hanks balanced salt solution), during which the cell culture dish was placed on ice. The cells were scraped with frozen HBSS containing protease inhibitors, then homogenated. The protein concentration was measured and calculated. 30 μg protein was added to each well and 25 μM […] (Santa Cruz) and 200 μM NADPH (Cayman Chemical) were also added. After staying in the dark room for 10 minutes at 37° C., the luminescence of each well was measured. Results: There was significant difference of ROS between high glucose group and normal group (P<0.05). The different concentration of ATG (10 μM, 20 μM, 50 μM, 100 μM) could reduce the amount of ROS induced by NOX. See Table 7 and FIG. 10 for the details.
compound,measurement,setting,value
"COc1cc(C[C@H]2C(=O)OC[C@@H]2Cc2ccc(OC)c(OC)c2)ccc1O [ATG, Arctigenin]",T-NOX4/β-actin mean,"NOX4 [1]; High glucose-ATG, total protein, podocytes",1.13
same,"expression of NOX4 in total protein, membrane protein and mitochondrial protein","NOX4 [1]; high glucose, FIG. 6",can inhibit the expression of NOX4 in the above three kinds of structures
same,NOX4/B-Tubulin Mean,NOX4 [2]; ATG 1 uM,0.18
same,NOX4/B-Tubulin Mean,NOX4 [2]; ATG 10 uM,0.12
same,"NOX-related ROS (luminescence), mean",NOX; HG + 10 μM ATG,1030
same,"NOX-related ROS (luminescence), mean",NOX; HG + 20 μM ATG,864
same,"NOX-related ROS (luminescence), mean",NOX; HG + 50 μM ATG,794
same,"NOX-related ROS (luminescence), mean",NOX; HG + 100 μM ATG,832
